The values below come from patent US20250215004A1, “AZOLO COMPOUNDS FOR TREATMENT OF FIBROTIC DISEASES” (GEORG-AUGUST-UNIVERSITÄT GÖTTINGEN STIFTUNG ÖFFENTLICHEN …, priority 2022, published 2025).

≈ marks a conversion by molar mass, not a printed value.

Holding throughout (format): cell-based
For assay [1], the system named is TK173 cells. Kind of assay: Collagen I Western blot in TGFβ1-treated TK173 fibroblasts. The settings on record: Homo sapiens, Fibroblast, 10 ng/ml TGFβ1 for 5 days, then compound 48 hours, Collagen I immunoblot. On the procedure:
(§1) Compound reconstitution. Prior to treatment, each compound was used from a stock solution of a concentration of 10 mg/ml in DMSO. Final concentration of DMSO in cell cultures was kept below 0.1%.
(§2) Cell culture and treatment. The human renal fibroblast cell line TK173 was derived from a normal human kidney (laboratory stock; (G. A. Müller et al., Exp. Nephrol. 1995, 3, 127). Cell line stabilization for research purposes was approved by the Ethics Committee of the Georg-August-University. TK173 cells were cultured in Dulbecco's modified Eagle's medium (DMEM, Gibco, USA) supplemented with 10% fetal bovine serum (FBS, Gibco, Germany) and 1% penicillin-streptomycin (PS, Gibco, USA) at 37° C. in a humidified atmosphere with 5% CO2. Cell line was routinely tested for mycoplasma contamination. To investigate the effect of compounds after profibrotic agent treatment, 3×10^4 TK173 cells were seeded in one well of a 6-well culture plate in normal medium. After 24 hours, the culture medium was removed, and the cells were incubated for a further 24 hours in FBS free culture medium (starvation medium). Then, 10 ng/ml TGFβ1 (R&D Systems, USA) was added to the starvation medium, and the culture medium was changed with fresh TGFβ1 in every alternate day. After 5 days of TGFβ1 treatment, cell culture medium was replaced by starvation medium with compounds at different concentration for following 48 hours of incubation.
Protein Extraction. Total proteins were extracted from the cultured cells by NP40 Cell Lysis Buffer (Invitrogen, USA) containing phosphatase (Sigma-Aldrich, USA) and protease inhibitor (Roche, Switzerland) followed by sonication and centrifugation at 12,000×g for 20 minutes at 4° C. to clear the lysates. The supernatant was collected and measured using Pierce BCA Protein Assay Kit (ThermoFisher Scientific) by PHOmo Microplate Reader (Autobio, China). The samples were stored at −80° C. prior to use.
Immunoblotting. Western blot analysis, 10 μg of extracted proteins were diluted in NuPAGE LDS Samples Buffer (Novex Life technologies, USA) containing 5% 2-Mercaptoethanol (Sigma-Aldrich, Germany), and following denatured for 5 minutes at 95° C. The proteins were resolved by 4-12% NuPAGE SDS-PAGE (Novex Life technologies, USA). Blots were often stripped with Thermo Scientific Restore PLUS Western Blot Stripping Buffer (Thermo Fisher Scientific, Germany) for reprobing. The following antibodies were used for immunoblotting: Collagen I (1:1000; ab233080, Abcam, USA), alpha smooth muscle Actin (1:1000; ab124964, Abcam, USA), GAPDH (1:8000; sc-32233, Santa Cruz, USA). Proteins were detected by LumiGLO chemiluminescent system (Cell Signaling Technology, USA) with appropriate secondary antibodies: anti-mouse HRP (1:2500; Dako, Denmark) and anti-rabbit HRP (1:2500; 7074, Cell Signaling Technology, USA) using ChemiDoc MP Imaging System (Bio-Rad, USA).

The test system of assay [2] is TK173 cells. In words: Collagen I mRNA PCR assay (qPCR, normalized to GAPDH) in TGFβ1-treated TK173 fibroblasts. Particulars: Homo sapiens, Fibroblast, 10 ng/ml TGFβ1 for 5 days, then compound 48 hours. The protocol:
as §1, §2
RNA isolation. Total RNA was extracted by the TRIzol reagent (Life technologies, USA) and purified by PureLink RNA Mini Kit (Ambion, USA) according to instructions available from the manufacturer with minor modifications. The samples were stored at −80° C. prior to use. RNA concentrations were measured by NanoDrop Spectrophotometer (ThermoFisher Scientific, USA), and were equilibrated to 100 ng for complementary DNA (cDNA) synthesis.
Quantitative real-time PCR analysis (qPCR). For SYBR Green-based qPCR analysis, cDNA preparation was performed by using DNAse I (Sigma-Aldrich, USA) digestion to remove residual genomic DNA and SuperScript II Reverse Transcriptase kit (Invitrogen, USA) to synthesize cDNA following the manufacturer's detailed instructions. All qPCR reactions were performed using the StepOne Plus Real-Time System (Applied Biosystems, USA) and amplifications were done using the SYBR Green PCR Master Mix (Applied Biosystems, USA). The thermal cycling conditions were initiated to 95° C. for 20 seconds, 40 amplification cycles at 95° C. for 3 seconds and 60° C. for 30 seconds, with one cycle of dissociation at 95° C. for 15 seconds, 60° C. for 60 seconds, and 95° C. for 15 seconds. Three replicates per sample were run in duplicate. The experimental cycle threshold (Ct) values were normalized to those obtained for GAPDH, and the relative gene expression level was determined using the 2_ddCT methods.
(In general: In qPCR the cycle at which signal appears reflects the starting amount.)

For assay [3], the system named is TK173 cells. Kind of assay: ELISA to detect secreted type I collagen (Pro-Collagen I alpha 1) in conditioned media of TGFβ1-treated TK173 fibroblasts. The settings on record: Homo sapiens, Fibroblast, 10 ng/ml TGFβ1 for 5 days, then compound 48 hours, Pro-Collagen I alpha 1 ELISA of conditioned media, read-out: IC50, concentration where the TGFβ-stimulated collagen secretion is attenuated by 50%. On the procedure: as §1, §2
Conditioned media containing the secretome of TK173 fibroblast were harvested after 48 hours of compound treatments. Secretion of pro-Collagen 1 was assessed with Human Pro-Collagen I alpha 1 DuoSet ELISA (R&D Systems, USA). To prepare the ELISA plate, Human Pro-Collagen I α1 Capture Antibody was diluted in ELISA Plate-coating Buffer at 4 μg/ml working concentration. 100 μl of diluted Capture Antibody was added to the 96-well microplates and incubated overnight at room temperature. After three times washing with Wash Buffer, microplates were blocked by adding 300 μl of Reagent Diluent for 1 hour at room temperature. To proceed the ELISA, Human Pro-Collagen I α1 Standards were diluted in Reagent Diluent (range between 31.3 pg/ml-2000 pg/ml) and 100 μl of standards or conditioned mediums were add into designated wells. Microplates were incubated at room temperature for 2 hours. Human Pro-Collagen I α1 Detection Antibody was prepared in Reagent Diluent at 100 ng/ml working concentration and 100 μl of diluted Detection Antibody was applied for 2 hours at room temperature after extensive washing. Then, working solution of Streptavidin-HRP with Reagent Diluent was prepared by diluting 1:40 and added into each well. After 20 minutes at room temperature incubation, microplates were washed and applied with 100 μl of Substrate Solution for 20 minutes followed by Stop Solution after washing. Finally, signals were measured at 450 nm absorbance by PHOmo Microplate Reader (Autobio, China). The amount of pro-collagen 1 antibody fusion was quantified by extrapolating the signal into a linear range of a pro-collagen 1 standard curve. Screening compounds were typically tested in at concentrations between 5 and 200 μg/ml. The IC50 values observed by the dose response curves for each compound (n=4-6, two independent experiments) were obtained by nonlinear regression analysis using Prism 9 software (GraphPad, La Jolla, USA) and represent the concentration where the TGFβ-stimulated collagen secretion is attenuated by 50%.

Take `c1ccc2c(c1)cnn1nnnc21` [Compound 1, Tetrazolo[5,1-a]phthalazine]: the IC50 in assay [1] is less than 40 µg/mL; in assay [2] it was less than 80 µg/mL; in assay [3] it was 157 µg/mL (≈ 917 µM).
On the same counts, the results for `Cc1nnc2c3ccccc3cnn12` [Compound 3, 3-Methyl-1,2,4-triazolo[3,4-a]phthalazine] are less than 5 µg/mL, less than 20 µg/mL and 96 µg/mL (≈ 521 µM).
As for `Cc1nn2c(C)nnc2c2ccccc12` [Compound 5, 3,6-Dimethyl-1,2,4-triazolo[3,4-a]phthalazine], the IC50 in assay [2] is less than 20 µg/mL; in assay [3], 39 µg/mL (≈ 197 µM).
As for `[2H]C([2H])([2H])c1nnc2c3ccccc3cnn12` [Compound 12, 3-D3-Methyl-1,2,4-triazolo[3,4-a]phthalazine], the IC50 in assay [1] is less than 5 µg/mL; in assay [2], less than 50 µg/mL.
For `Clc1ccc2c(cnn3nnnc23)c1` [Compound 51b, 8-chlorotetrazolo[5,1-a]phthalazine], the IC50 in assay [1] and in assay [2] was less than 5 µg/mL in each case.
